{
  "source": "patent US12344620B2",
  "about": "“BRD4 inhibitor compound in solid form and preparation method therefor and use thereof” (CSPC ZHONGQI PHARMACEUTICAL TECHNOLOGY (SHIJIAZHUANG) CO., …, priority 2019, dated 2025)",
  "key": {"[1]": {"target": "hERG potassium ion channel (Homo sapiens (Human), UniProt Q12809)", "sequence (Q12809 whole entry)": "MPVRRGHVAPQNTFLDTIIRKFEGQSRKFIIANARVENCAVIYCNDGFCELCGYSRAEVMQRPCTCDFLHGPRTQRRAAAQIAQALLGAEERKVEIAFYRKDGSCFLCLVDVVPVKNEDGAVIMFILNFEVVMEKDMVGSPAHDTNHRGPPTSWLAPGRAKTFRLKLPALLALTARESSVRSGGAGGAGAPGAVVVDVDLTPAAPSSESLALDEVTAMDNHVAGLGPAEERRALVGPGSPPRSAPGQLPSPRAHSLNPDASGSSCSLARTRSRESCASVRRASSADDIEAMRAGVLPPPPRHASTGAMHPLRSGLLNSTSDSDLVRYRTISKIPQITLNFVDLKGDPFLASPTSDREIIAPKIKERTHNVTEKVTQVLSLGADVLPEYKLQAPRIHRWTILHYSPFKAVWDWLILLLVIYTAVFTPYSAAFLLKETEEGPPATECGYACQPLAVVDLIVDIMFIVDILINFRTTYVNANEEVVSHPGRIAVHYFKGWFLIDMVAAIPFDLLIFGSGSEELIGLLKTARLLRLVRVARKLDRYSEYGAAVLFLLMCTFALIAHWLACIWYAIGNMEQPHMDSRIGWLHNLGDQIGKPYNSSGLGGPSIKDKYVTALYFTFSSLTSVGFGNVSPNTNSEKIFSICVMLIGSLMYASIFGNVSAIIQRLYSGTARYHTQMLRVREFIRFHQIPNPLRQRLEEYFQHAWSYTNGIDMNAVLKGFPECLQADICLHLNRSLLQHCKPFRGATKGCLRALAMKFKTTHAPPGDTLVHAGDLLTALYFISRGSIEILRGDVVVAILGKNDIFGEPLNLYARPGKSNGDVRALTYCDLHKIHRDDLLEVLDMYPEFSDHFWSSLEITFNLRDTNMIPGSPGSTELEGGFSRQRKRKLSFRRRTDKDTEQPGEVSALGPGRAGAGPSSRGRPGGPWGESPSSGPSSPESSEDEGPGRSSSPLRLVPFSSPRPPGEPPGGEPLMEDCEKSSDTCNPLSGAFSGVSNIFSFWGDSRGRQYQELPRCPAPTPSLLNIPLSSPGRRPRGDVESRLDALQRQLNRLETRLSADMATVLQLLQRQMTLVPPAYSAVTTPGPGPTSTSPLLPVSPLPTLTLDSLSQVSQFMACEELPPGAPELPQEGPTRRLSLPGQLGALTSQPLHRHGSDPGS", "assay": "hERG potassium channel current, automatic patch-clamp QPatch, CHO-hERG cells", "format": "cell-based", "settings": "highest test concentration 40 μM", "experimental": "The effect of the compound of formula (I) on the hERG potassium channel current was investigated by adopting CHO (Chinese Hamster ovary) cell stably expressing the hERG potassium ion channel and using the fully automatic patch-clamp QPatch technology.\nCHO-hERG cells were cultured in a 175 cm^2 culture flask. After the cell density increased to 60-80%, the culture medium was removed, the cells were washed once with 7 mL PBS, and then 3 mL Detachin was added for digestion.\nAfter the digestion was complete, 7 mL of culture medium was added for neutralization, and then the mixture was centrifuged. The supernatant was removed, and then 5 mL of culture medium was added for resuspension to ensure that the cell density was 2-5×10^6/mL. […]\nThe single-cell high-impedance sealing and the whole-cell mode formation process were all automatically completed by the Qpatch instrument. […] The data were recorded for 2 minutes, then extracellular fluid was given, and then the data were recorded for 5 minutes. […] The experimental data were analyzed by XLFit software."}, "[2]": {"assay": "In vivo pharmacokinetics test in rat", "settings": "plasma, male SD rats, crystalline form A used; for AUC(0-inf): read-out: Area under curve (0-inf) AUC0-inf; for AUC(0-t): read-out: Area under curve (0-t) AUC0-last; for half-life: read-out: Half life T1/2 (converted)", "experimental": "(§1) Male SD rats were used as test animals. The compound of formula (I) was administrated intravenously and intragastrically to rats, and then the drug concentrations in the plasma at different time points were determined by the LC/MS/MS method. The in vivo pharmacokinetic behavior of the compound of formula (I) in rats was studied, and its pharmacokinetic characteristics were evaluated.\n1.1 Experiment Drug: The Compound of Formula (I) (the Crystalline Form A)\n4 healthy adult male SD rats were divided into 2 groups according to the similar weight principle, with 2 rats in each group. The animals were commercially available from Beijing Weitonglihua Laboratory Animals Ltd., animal production license number: SCXK (Beijing) 2016-0006.\nAn appropriate amount of the sample was taken, 5% final volume of DMSO was added, and then 95% final volume of 20% HP-β-CD was added. The mixture was ultrasonically stirred to obtain a 0.5 mg/mL clear solution. After filtration, it was used for the intravenous administration.\nAn appropriate amount of the sample was taken, and dissolved in a 0.5% sodium carboxymethyl cellulose solution. The mixture was ultrasonically stirred to obtain a 1 mg/mL homogeneous suspension, which was used for the intragastric administration.\nFour male SD rats were divided into two groups. After fasting overnight, the first group was administered intravenously with the administration volume of 4 mL/kg and the dosage of 2 mg/kg. The second group was administered intragastrically with the administration volume of 10 mL/kg and the dosage of 10 mg/kg.\nAfter the male SD rats were intravenously administrated, 100 μL of blood was taken at each time point of 0.0833, 0.25, 0.5, 1, 2, 4, 6, 8 and 24 hours, and placed in test tubes containing 2 μL of EDTA-K2; and after the SD rats were intragastrically administrated, 100 μL of blood was taken at each time point of 0.0833, 0.25, 0.5, 1, 2, 4, 6, 8 and 24 hours, and placed in test tubes containing 2 μL of EDTA-K2. The tube was centrifuged at 3000 g for 15 minutes to separate the plasma, and the separated plasma was stored at −60° C. Animals could be fed 2 hours after the administration.\n(§2) The LC/MS/MS method was used to measure the content of the compound to be tested in the plasma after the intravenous and intragastric administration to the rats. The linear range of the method was 2.00-6000 nmol/L; the plasma samples were analyzed after the protein precipitation by acetonitrile treatment."}, "[3]": {"assay": "In vivo pharmacokinetics test in mice", "settings": "mouse, plasma, po; female Balb/c mice, intragastric, 3 mg/kg; read-out: Bioavailability F", "experimental": "as §1, with “Female Balb/c mice” for “Male SD rats”, “mice,” for “rats, and”, “mice” for “rats”\nSixteen healthy adult female Balb/c mice were divided into four groups according to the principle of similar body weight, with four mice in each group. The animals were purchased from Shanghai Lingchang BioTech Co., Ltd. of Shanghai SLAC Laboratory Animal Co., Ltd., and the animal production license number was SCXK (Shanghai) 2013-0018.\nAn appropriate amount of the sample was taken, 5% final volume of DMSO was added, and then 95% final volume of 20% HP-β-CD was added. The mixture was ultrasonically stirred to obtain a 0.5 mg/mL clear solution. After filtration, it was used for the intravenous administration. […]\nas §2, with “mice.” for “rats.”"}},
  "note": "Like-named read-outs stand apart in the source and are kept apart here.",
  "data": [
    {"smiles": "Cc1sc2c(c1C)C(c1ccc(Cl)cc1)=N[C@@H](CC(=O)Nc1ccc3c(c1)COC3=O)c1nnc(C)n1-2", "note": "[Compound of formula (I)]", "values": [
      {"measurement": "IC50", "setting": "[1]", "result": "> 40", "unit": "µM"},
      {"measurement": "Vd", "setting": "[2]; intravenous, 2 mg/kg, read-out: Apparent distribution Vdss", "result": 1.48, "unit": "L/kg"},
      {"measurement": "AUC(0-inf)", "setting": "[2]; intravenous, 2 mg/kg", "result": 2.22, "unit": "µM·h"},
      {"measurement": "AUC(0-t)", "setting": "[2]; intravenous, 2 mg/kg", "result": 2.21, "unit": "µM·h"},
      {"measurement": "clearance", "setting": "[2]; intravenous, 2 mg/kg, read-out: Clearance rate Cl", "result": 28.3, "unit": "mL/min/kg"},
      {"measurement": "half-life", "setting": "[2]; intravenous, 2 mg/kg", "result": 0.683, "unit": "h"},
      {"measurement": "bioavailability", "setting": "[2]; po, intragastric, 10 mg/kg", "result": 29.3, "unit": "%"},
      {"measurement": "AUC(0-inf)", "setting": "[2]; po, intragastric, 10 mg/kg", "result": 3.25, "unit": "µM·h"},
      {"measurement": "AUC(0-t)", "setting": "[2]; po, intragastric, 10 mg/kg", "result": 3.22, "unit": "µM·h"},
      {"measurement": "Cmax", "setting": "[2]; po, intragastric, 10 mg/kg, read-out: Drug concentration in blood Cmax", "result": 1160, "unit": "nM"},
      {"measurement": "half-life", "setting": "[2]; po, intragastric, 10 mg/kg", "result": 1.01, "unit": "h"},
      {"measurement": "Tmax", "setting": "[2]; po, intragastric, 10 mg/kg, read-out: Time to peak Tmax", "result": 1, "unit": "h"},
      {"measurement": "bioavailability", "setting": "[3]", "result": 37.5, "unit": "%"}
    ]}
  ]
}
